{
  "source": "patent US20250049741A1",
  "about": "“COMPOSITION FOR PREVENTING OR TREATING ALZHEIMER'S DISEASE COMPRISING PHOSPHOLIPASE C ACTIVATOR AS AN ACTIVE INGREDIENT” (Korea University Research and Business Foundation, priority 2021, published 2025)",
  "type_in_all_cases": "cell-based, Sprague-Dawley rats",
  "key": {"[1]": {"system": "CA1 PCs in rat hippocampal slices", "assay": "Ex vivo eCB / S-eCB mobilization protocol: eIPSC amplitudes by whole-cell voltage-clamp", "from_the_text": "To test the acute effect of AβO on hippocampal S-eCB mobilization, hippocampal slices from Sprague-Dawley rats (SD, 2 to 3 weeks old, DaeHan Biolink, Co., Ltd., Korea) were used. Male and female rats were used in all in vitro experiments. To test the chronic effect of AβO on hippocampus-dependent memory impairments caused by amyloidosis, the 5XFAD mouse model (6 to 7 months old, #34840-JAX, Jackson Laboratory, USA), which is a mouse model of Alzheimer's disease that mimics AβO depositions, was used. C57BL/6 mice (6 to 7 months old, KOATECH, Korea) were used as wild type (WT) control mice for 5XFAD mice. Male 5XFAD and C57BL/6 mice were used for all in vivo behavioral experiments. The 5XFAD mouse genotypes were identified by polymerase chain reaction (PCR) using DNA extracted from the tails of the mice. All animal-related procedures followed the guidelines of the Institutional Animal Care and Use Committee of Korea University (guidelines for SD rats: KUIACUC-2017-103, guidelines for C57BL/6 and 5XFAD mice: KUIACUC-2019-0068).\n(§1) Soluble AβO was prepared according to a previous study (BMC Biol. 2020; 18(1):7). Specifically, Aβ1-42 (Aβ) and a scrambled form of Aβ as a control peptide were purchased in powder form. Aβ and scrambled Aβ were dissolved for monomerization in 1,1,1,3,3,3-hexafluoro-2-propanol (HFIP, Sigma Aldrich, USA) at a final concentration of 1 mM, and the solution was incubated for 90 minutes. After the HFIP was evaporated, the remaining thin and clear film of Aβ or scrambled Aβ was dissolved in dimethyl sulfoxide (DMSO, Sigma Aldrich, USA) to prepare 5 mM Aβ or scrambled Aβ stocks, which were aliquoted and frozen at −20° C. Aβ or scrambled Aβ stocks were thawed and diluted to 100 μM in artificial cerebrospinal fluid (ACSF). Thereafter, Aβ or scrambled Aβ stocks were incubated for oligomerization for 18 hours. The final AβO or scrambled AβO stock solution was diluted to a final concentration of 200 nM in 31.2 ml of ACSF, and rat hippocampal slices were treated with the stock solution for 20 minutes in a recovery chamber before measurement of brain signals. In control experiments for normal brain conditions using a vehicle, rat hippocampal slices were treated with 0.004% DMSO in ACSF.\n(§2) The brains of SD rats were isolated following decapitation under isoflurane-induced anesthesia and transferred into ice-cold ACSF containing 126 mM NaCl, […], 1.25 mM NaH2PO4, 2 mM MgSO4, 2 mM CaCl2), 25 mM NaHCO3, and 10 mM glucose (pH 7.2 to 7.4). The ACSF was continuously oxygenated with 95% O2/5% CO2. Horizontal hippocampal slices (350 μm thickness) were obtained using a vibratome (VT1000S, Leica Biosystems, Germany) and immediately incubated at room temperature in a submerged chamber perfused with oxygenated ACSF for at least 1 hour.\nTo quantify eCB mobilization, the changes in eCB mobilization-induced Schaffer collateral (SC) nerve bundle stimulation-evoked inhibitory postsynaptic current (eIPSC) amplitudes were measured in CA1 PCs through the whole-cell voltage-clamp technique. The whole-cell voltage-clamp technique in CA1 PCs was performed using a MultiClamp 700B amplifier (Molecular Devices, USA) under an infrared differential interference contrast video microscope (BW51W, Olympus, Japan), using a borosilicate electrode (tip resistance: 4 to 8 MΩ) that was filled with an intracellular solution containing 145 mM CsCl, 10 mM HEPES, 2 mM EGTA, 4 mM QX-314, 4 mM Mg-ATP, 0.4 mM […], pH 7.2 to 7.3, and 270 to 280 mOsm/L. To record eIPSCs in the CA1 PCs, a stimulating electrode (A-M Systems, USA) was placed in a stratum radiatum to stimulate the SC pathway that carries CA3 PC axons. Electrical stimulation pulses of 200 to 400 μA amplitudes (20 to 40 μs) were generated using a constant current stimulator (model DS3, Digitimer Ltd., UK). eIPSCs were recorded in CA PCs every 1 second while maintaining the membrane potential at −70 mV."}, "[2]": {"system": "hippocampal CA3-CA1 excitatory synapses", "assay": "S-eCB mobilization induced spike timing-dependent potentiation (tLTP) protocol, EPSP slope", "procedure": "as §1, §2"}, "[3]": {"system": "PLCβ1", "assay": "Western blot of PLCβ1 in rat hippocampal slices", "conditions": "AβO-treated rat hippocampal slices", "procedure": "as §1, with “The final AβO or scrambled AβO stock solution was diluted to a final concentration of 200 nM in 31.2 ml of ACSF, and rat hippocampal slices were treated with the stock solution for 20 minutes in a recovery chamber before measurement of brain signals. In control experiments for normal brain conditions using a vehicle, rat hippocampal slices were treated with 0.004% DMSO in ACSF.” left out\nHippocampal PLCβ1 of SD rats and C57BL/6 or 5XFAD mice were prepared from homogenized hippocampi dissolved in 200 μL of RIPA buffer (Bio-Rad, USA), and were resolved on non-reducing 10% tris-glycine-sodium dodecyl sulfate-polyacrylamide gel electrophoresis (SDS-PAGE) gels (Bio-Rad, USA) using 4×Laemmli sample buffers (Bio-Rad, USA). […] Immunoreactivity was confirmed with enhanced chemiluminescence (Bio-Rad, USA) using a Fluorchem E system (ProteinSimple, USA) and analyzed with ImageJ software. […]"}, "[4]": {"conditions": "DMSO-treated rat hippocampal slices, D-AP5 50 μM or AM251 3 μM"}},
  "data": [
    {"molecule": "Cc1c(C(=O)NN2CCCCC2)nn(-c2ccc(Cl)cc2Cl)c1-c1ccc(I)cc1", "note": "[AM251]", "values": [
      {"measurement": "effect on the DHPG-induced decrease of eIPSC amplitude (eCB mobilization)", "setting": "[1]; AM251 3 μM, DHPG puff alone", "result": "blocked the decrease in amplitude"}
    ]},
    {"molecule": "N[C@H](CCCP(=O)(O)O)C(=O)O", "note": "[D-AP5, D-2-amino-5-phosphonovaleric acid]", "values": [
      {"measurement": "mGluR5-mediated LTD in the presence of antagonist", "setting": "[2]; [4]", "result": "induced in both the test and control pathways"},
      {"measurement": "tLTP induction (EPSP slope, test pathway), effect of antagonist", "setting": "[2]; [4]", "result": "completely blocked"}
    ]},
    {"molecule": "N[C@H](C(=O)O)c1cc(O)cc(O)c1", "note": "[DHPG, (S)-3,5-dihydroxyphenylglycine]", "values": [
      {"measurement": "first ten eIPSC amplitudes as % of the mean eIPSC amplitude measured at the baseline before the DHPG puff", "setting": "[1]; DHPG (50 μM) puff alone, rat hippocampal slices, mean±SEM", "result": "79±7", "unit": "%"},
      {"measurement": "eIPSC amplitude as % of the baseline eIPSC amplitude (S-eCB mobilization)", "setting": "[1]; DHPG puff paired with 60-s-long postsynaptic neural spike trains at 1 Hz, DMSO-treated rat hippocampal slices, mean±SEM", "result": "62±4", "unit": "%"}
    ]},
    {"molecule": "Cc1cc(C(=O)O)ccc1[C@H](N)C(=O)O", "note": "[LY367385]", "values": [
      {"measurement": "eIPSC amplitudes following 60-s-long DHPG puff during 1 Hz neural spikes in the presence of mGluR1 antagonist", "setting": "[1]; LY367385 100 μM, DMSO-treated rat hippocampal slices", "result": "decreased"}
    ]},
    {"molecule": "Cc1cccc(C#Cc2ccccc2)n1", "note": "[MPEP, 2-methyl-6-(phenylethynyl) pyridine]", "values": [
      {"measurement": "eIPSC amplitudes following DHPG puff during 1 Hz neural spikes in the presence of mGluR5 antagonist", "setting": "[1]; MPEP 10 μM, DMSO-treated, AβO-treated or scrambled AβO-treated rat hippocampal slices", "result": "did not significantly change"}
    ]},
    {"molecule": "COc1ccc2c(c1)CC[C@@H]1[C@@H]2CC[C@]2(C)[C@@H](NCCCCCCN3C(=O)C=CC3=O)CC[C@@H]12", "note": "[U73122]", "values": [
      {"measurement": "synergistic enhancement in the suppression of eIPSC amplitudes (S-eCB mobilization), effect of PLCβ blocker", "setting": "[1]; U73122 5 μM, DMSO-treated rat hippocampal slices, similar in AβO- and scrambled AβO-treated slices", "result": "completely blocked"}
    ]},
    {"molecule": "AβO: soluble amyloid beta oligomer prepared from Aβ1-42 peptide powder (Bachem)", "values": [
      {"measurement": "protein expression levels of PLCβ1 compared to DMSO-treated slices", "setting": "[3]", "result": "remarkably decreased"},
      {"measurement": "eIPSC amplitudes / suppression of eIPSC amplitudes following DHPG puff during 1 Hz neural spikes in peptide-treated slices", "setting": "[1]; slices treated with 200 nM peptide for 20 minutes, in the presence of LY367385 100 μM", "result": "completely blocked"},
      {"measurement": "mGluR-LTD in the control pathway", "setting": "[2]; AβO-treated compared to DMSO-treated rat hippocampal slices", "result": "not affected"},
      {"measurement": "induction of tLTP in the test pathway", "setting": "[2]; AβO-treated rat hippocampal slices", "result": "completely blocked"}
    ]}
  ]
}
